For data set [1], the system named is Mus musculus. Kind of data set: Time duration maintaining effective drug urine level in mouse at 10 mg/kg, ip. It counts as ADME, organism-based. The conditions noted are these: in vivo.
Data set [2] is described as follows: Stability in mouse urinary bladder assessed as unchanged drug level at 100 mg/kg, po. Format: ADME, organism-based. The conditions noted are these: in vivo.
A further data set concerns Escherichia coli. Kind of data set: Antimicrobial activity against uropathogenic Escherichia coli infected in chronic mouse cystitis model assessed as reduction in bacterial levels at 100 mg/kg, po administered as single dose relative to untreated control. Format: functional.
Data set [3] has as its system Mus musculus. Kind of data set: Time duration maintaining >10 mM urine level in mouse at 50 mg/kg, po. Format: ADME, organism-based. The following applies: in vivo.
A short description of data set [4]: Binding affinity to Pseudomonas aeruginosa LecA.
Data set [5] is described as follows: Binding affinity to Pseudomonas aeruginosa LecB.
Data set [6] is described as follows: Inhibition of Pseudomonas aeruginosa LecA by ELISA method. Background: In an ELISA, binding on a coated surface is turned into a signal by an enzyme label.
The subject of a further data set is Streptococcus suis. Kind of data set: […] of Streptococcus suis by hemagglutination inhibition assay. It counts as functional, organism-based.

Molecules are shown by their SMILES. pIC50, pKd: −log10 of the molar value.

Molecule `CNC(=O)c1cc(C(=O)NC)cc(-c2ccc(O[C@H]3O[C@H](CO)[C@@H](O)[C@H](O)[C@@H]3O)cc2)c1` displayed a Time in the data set with Mus musculus [1] of 8 h. Besides, the Stability in data set [2] is reported as above 95%. Also, the “fold change (FC)” value in the data set with Escherichia coli is recorded as 3.

As to `CNC(=O)c1cc(C(=O)NC)cc(-c2ccc(O[C@H]3O[C@H](CO)[C@@H](O)[C@H](O)[C@@H]3O)c(C)c2)c1`, in the data set with Mus musculus [3], the Time stood at 6 h.

As to `CC(C)C[C@H](NC(=O)[C@@H]1CCCN1C(=O)[C@H](CCCCN)NC(=O)c1ccc(O[C@@H]2O[C@H](CO)[C@H](O)[C@H](O)[C@H]2O)cc1)C(N)=O`, the negative logarithm of the Kd (pKd) (commonly the negative decadic logarithm of the Kd, by convention in mol/L) in data set [4] is 5.38.

Molecule `[N-]=[N+]=NCC(=O)Nc1ccc(O[C@@H]2O[C@H](CO)[C@H](O)[C@H](O)[C@H]2O)cc1` showed a pKd in data set [4] of 5.24.

On to `OC[C@H]1O[C@@H](Oc2ccc3ccccc3c2)[C@H](O)[C@@H](O)[C@H]1O`, for which the pKd in data set [4] was 5.38. The pKd values of the last two molecules are within 0.2 log units of each other.

The molecule `COC(=O)c1cn([C@@H]2O[C@H](CO)[C@@H](O[C@@H]3O[C@H](C)[C@@H](O)[C@@H](O)[C@@H]3O)[C@H](O)[C@H]2NC(C)=O)nn1` had a negative-log Kd (pKd) in data set [5] of 6.54.

The molecule `CO[C@H]1O[C@H](CNS(=O)(=O)c2c(C)cc(C)cc2C)[C@@H](O)[C@H](O)[C@@H]1O` had a pKd in data set [5] of 5.48.

On to `CC(C)(C)c1cc2c(Oc3cn(CC(=O)NCCOCCO[C@@H]4O[C@H](CO)[C@H](O)[C@H](O)[C@H]4O)nn3)c(c1)Cc1cc(C(C)(C)C)cc(c1Oc1cn(CC(=O)NCCOCCO[C@@H]3O[C@H](CO)[C@H](O)[C@H](O)[C@H]3O)nn1)Cc1cc(C(C)(C)C)cc(c1Oc1cn(CC(=O)NCCOCCO[C@@H]3O[C@H](CO)[C@H](O)[C@H](O)[C@H]3O)nn1)Cc1cc(C(C)(C)C)cc(c1Oc1cn(CC(=O)NCCOCCO[C@@H]3O[C@H](CO)[C@H](O)[C@H](O)[C@H]3O)nn1)C2`, for which the negative-log Kd (pKd) in data set [4] was 7.05.

`O=C(Cn1cc(CCC(=O)N[C@H]2[C@@H]3OC[C@H]4O[C@@H](OC[C@H]5O[C@@H](OC[C@H]6O[C@@H](OC[C@@H](O3)[C@@H](O)[C@@H]2O)[C@H](NC(=O)CCc2cn(CC(=O)Nc3ccc(O[C@@H]7O[C@H](CO)[C@H](O)[C@H](O)[C@H]7O)cc3)nn2)[C@@H](O)[C@@H]6O)[C@H](NC(=O)CCc2cn(CC(=O)Nc3ccc(O[C@@H]6O[C@H](CO)[C@H](O)[C@H](O)[C@H]6O)cc3)nn2)[C@@H](O)[C@@H]5O)[C@H](NC(=O)CCc2cn(CC(=O)Nc3ccc(O[C@@H]5O[C@H](CO)[C@@H](O)[C@H](O)[C@H]5O)cc3)nn2)[C@@H](O)[C@@H]4O)nn1)Nc1ccc(O[C@@H]2O[C@H](CO)[C@@H](O)[C@H](O)[C@H]2O)cc1` gave a pKd in data set [4] of 7.10.

In the case of `OC[C@H]1O[C@@H](OCc2cn([C@H]3[C@H](O)[C@@H](O)[C@H](n4cc([C@@H]5O[C@H](CO)[C@@H](n6cc(CO[C@@H]7O[C@H](CO)[C@H](O)[C@H](O)[C@H]7O)nn6)[C@H](O)[C@H]5O)nn4)O[C@@H]3CO)nn2)[C@H](O)[C@@H](O)[C@H]1O`, the negative logarithm of the IC50 (pIC50) (in general, the IC50 on a negative log10 scale, so that one unit is a factor of ten) in data set [6] was 5.46.

In turn, `OC[C@H]1O[C@@H](OCc2cn([C@H]3[C@H](O)[C@@H](O)[C@H](c4cn([C@H]5[C@H](O)[C@@H](O)[C@H](n6cc([C@@H]7O[C@H](CO)[C@@H](n8cc([C@@H]9O[C@H](CO)[C@@H](n%10cc(CO[C@@H]%11O[C@H](CO)[C@H](O)[C@H](O)[C@H]%11O)nn%10)[C@H](O)[C@H]9O)nn8)[C@H](O)[C@H]7O)nn6)O[C@@H]5CO)nn4)O[C@@H]3CO)nn2)[C@H](O)[C@@H](O)[C@H]1O` gave a negative logarithm of the IC50 (pIC50) in data set [6] of 6.08.

As to `COc1ccc(O[C@@H]2O[C@H](CO)[C@H](O[C@H]3O[C@H](CO)[C@H](O)[C@H](NC(=O)Nc4ccccc4)[C@H]3O)[C@H](O)[C@H]2O)cc1`, in the data set with Streptococcus suis, the pIC50 is 7.52.

Consider `COCO[C@H]1[C@@H](O[C@@H]2[C@H](O)[C@@H](O)[C@H](Oc3ccc(OC)cc3)O[C@@H]2CO)O[C@H](CO)[C@H](O)[C@@H]1O`, for which the pIC50 in the data set with Streptococcus suis was 7.30.

With `O=C(CCSCC(CSCCC(=O)NCCO[C@@H]1O[C@H](CO)[C@H](O[C@H]2O[C@H](CO)[C@H](O)[C@H](O)[C@H]2O)[C@H](O)[C@H]1O)(CSCCC(=O)NCCO[C@@H]1O[C@H](CO)[C@H](O[C@H]2O[C@H](CO)[C@H](O)[C@H](O)[C@H]2O)[C@H](O)[C@H]1O)CSCCC(=O)NCCO[C@@H]1O[C@H](CO)[C@H](O[C@H]2O[C@H](CO)[C@H](O)[C@H](O)[C@H]2O)[C@H](O)[C@H]1O)NCCO[C@@H]1O[C@H](CO)[C@H](O[C@H]2O[C@H](CO)[C@H](O)[C@H](O)[C@H]2O)[C@H](O)[C@H]1O`, in the data set on Streptococcus suis, the pIC50 is 8.70.

As for `COC(=O)c1cc(OCCNC(=O)c2cc(OCCNC(=O)COCC(=O)NCCO[C@@H]3O[C@H](CO)[C@H](O[C@H]4O[C@H](CO)[C@H](O)[C@H](O)[C@H]4O)[C@H](O)[C@H]3O)cc(OCCNC(=O)COCC(=O)NCCO[C@@H]3O[C@H](CO)[C@H](O[C@H]4O[C@H](CO)[C@H](O)[C@H](O)[C@H]4O)[C@H](O)[C@H]3O)c2)cc(OCCNC(=O)c2cc(OCCNC(=O)COCC(=O)NCCO[C@@H]3O[C@H](CO)[C@H](O[C@H]4O[C@H](CO)[C@H](O)[C@H](O)[C@H]4O)[C@H](O)[C@H]3O)cc(OCCNC(=O)COCC(=O)NCCO[C@@H]3O[C@H](CO)[C@H](O[C@H]4O[C@H](CO)[C@H](O)[C@H](O)[C@H]4O)[C@H](O)[C@H]3O)c2)c1`, the negative logarithm of the IC50 (pIC50) in the data set with Streptococcus suis was 9.52. Compared with the last molecule, the pIC50 is 0.82 log units higher.

In the data set on Streptococcus suis, `COc1ccc(O[C@@H]2O[C@H](CO)[C@H](O[C@H]3O[C@H](CO)[C@H](O)[C@H](O)[C@H]3O)[C@H](O)[C@H]2O)cc1` had a pIC50 of 6.51.

Regarding `OC[C@H]1O[C@@H](Sc2ccc3ccccc3c2)[C@H](O)[C@@H](O)[C@H]1O`, in data set [4], the pKd was 5.20.

In data set [5], `CC(=O)N[C@H]1C(O)O[C@H](CO)[C@@H](O[C@@H]2O[C@@H](C)[C@@H](O)[C@@H](O)[C@@H]2O)[C@@H]1O[C@@H]1O[C@H](CO)[C@H](O)[C@H](O)[C@H]1O` (stereo partly drawn) had a negative-log Kd (pKd) of 6.68.

In the case of `OC[C@H]1O[C@@H](OCc2cn([C@H]3[C@H](O)[C@@H](O)[C@H](c4cn([C@H]5[C@H](O)[C@@H](O)[C@H](n6cc([C@@H]7O[C@H](CO)[C@@H](n8cc(CO[C@@H]9O[C@H](CO)[C@H](O)[C@H](O)[C@H]9O)nn8)[C@H](O)[C@H]7O)nn6)O[C@@H]5CO)nn4)O[C@@H]3CO)nn2)[C@H](O)[C@@H](O)[C@H]1O`, the negative-log Kd (pKd) in data set [4] was 7.55. In data set [6], this molecule gave a negative-log IC50 (pIC50) of 8.57.

Turning to `O=C[C@H](O)[C@@H](O)[C@@H](O)[C@H](O)CO` [GALACTOSE], the pKd in data set [4] was 4.06.

These data come from ChEMBL document CHEMBL3588834, “Towards bacterial adhesion-based therapeutics and detection methods” (Medchemcomm, 2014).
